Data reported in patent publication US7452908B2, “Amide derivatives” (Banyu Pharmaceutical Co., Ltd., priority 1999, dated 2008).

What was measured:
[1] = target: T1, human m5 muscarinic acetylcholine receptor expressed in CHO cells (Homo sapiens, UniProt P08912); assay: Inhibition of [3H]-N-methylscopolamine binding to muscarinic m5 receptor; settings: 0.2 nM [3H]-N-methylscopolamine
T1 construct: purchased Receptor Biology, Inc; host or cells: CHO cells
T1 sequence (P08912 1-532): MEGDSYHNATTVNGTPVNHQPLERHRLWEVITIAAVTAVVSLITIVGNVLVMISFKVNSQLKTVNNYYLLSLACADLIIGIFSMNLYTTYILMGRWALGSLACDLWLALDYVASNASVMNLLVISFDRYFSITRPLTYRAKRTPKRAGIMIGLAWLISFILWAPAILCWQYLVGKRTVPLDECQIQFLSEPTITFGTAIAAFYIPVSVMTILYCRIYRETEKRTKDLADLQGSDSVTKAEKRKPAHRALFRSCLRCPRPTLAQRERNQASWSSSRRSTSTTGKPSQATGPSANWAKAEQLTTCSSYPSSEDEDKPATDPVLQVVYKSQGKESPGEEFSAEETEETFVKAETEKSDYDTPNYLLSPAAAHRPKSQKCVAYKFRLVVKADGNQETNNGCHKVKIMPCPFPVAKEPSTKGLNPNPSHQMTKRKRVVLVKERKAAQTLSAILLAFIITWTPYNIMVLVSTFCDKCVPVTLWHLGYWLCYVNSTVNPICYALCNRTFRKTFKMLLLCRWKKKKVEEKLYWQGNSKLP
Method: (§1) These tests were performed according to a modification of the method of Hargreaves, et al. (Br. J. Pharmacol. 107: 494-501, 1992). Namely, muscarinic acetylcholine receptors of human m1, m2, m3, m4 and m5 expressed in CHO cells (Receptor Biology, Inc.) were incubated with 0.2 nM [^3H]-N-methylscopolamine (82Ci/mmol, New England Nuclear, Inc.) and a test compound to be tested in 0.5 ml of 50 mM Tris-HCl, 10 mM MgCl2, 1 mM EDTA solution (pH 7.4) for 120 minutes at room temperature (about 20-25° C.), followed by suction filtration over a glass filter (UniFilter plate-GF/C; Packard). Then the filter was washed four times with 1 ml of ice-cold Tris-HCl buffer and dried at 50° C. for an hour. After adding a scintillator (Microscinti 0; Packard), the radioactivity of [^3H]-N-methylscopolamine binding to the filter was counted with a microplate scintillation counter (TopCount™; Packard). Non-specific receptor binding of [^3H]-N-methylscopolamine was measured by adding 1 μM N-methylscopolamine.

[2] = target: T2, human m2 muscarinic acetylcholine receptor expressed in CHO cells (Homo sapiens, UniProt P08172); assay: Inhibition of [3H]-N-methylscopolamine binding to muscarinic m2 receptor; settings: 0.2 nM [3H]-N-methylscopolamine
T2 construct: purchased Receptor Biology, Inc; host or cells: CHO cells
T2 sequence (P08172 1-466): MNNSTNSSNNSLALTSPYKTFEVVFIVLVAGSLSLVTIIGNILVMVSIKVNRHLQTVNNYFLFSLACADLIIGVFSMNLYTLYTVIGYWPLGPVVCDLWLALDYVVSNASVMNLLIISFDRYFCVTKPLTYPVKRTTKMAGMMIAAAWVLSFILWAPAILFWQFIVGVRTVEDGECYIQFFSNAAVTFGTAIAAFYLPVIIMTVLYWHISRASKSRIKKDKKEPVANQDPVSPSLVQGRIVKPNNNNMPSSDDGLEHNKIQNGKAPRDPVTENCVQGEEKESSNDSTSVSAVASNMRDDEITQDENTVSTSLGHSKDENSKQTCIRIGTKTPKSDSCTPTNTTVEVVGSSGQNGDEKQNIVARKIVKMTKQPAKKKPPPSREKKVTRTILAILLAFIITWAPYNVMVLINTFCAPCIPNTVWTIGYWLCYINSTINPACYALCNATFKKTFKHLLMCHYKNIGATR
Method: as §1

[3] = target: T3, human m1 muscarinic acetylcholine receptor expressed in CHO cells (Homo sapiens, UniProt P11229); assay: Inhibition of [3H]-N-methylscopolamine binding to muscarinic m1 receptor; settings: 0.2 nM [3H]-N-methylscopolamine
T3 construct: purchased Receptor Biology, Inc; host or cells: CHO cells
T3 sequence (P11229 1-460): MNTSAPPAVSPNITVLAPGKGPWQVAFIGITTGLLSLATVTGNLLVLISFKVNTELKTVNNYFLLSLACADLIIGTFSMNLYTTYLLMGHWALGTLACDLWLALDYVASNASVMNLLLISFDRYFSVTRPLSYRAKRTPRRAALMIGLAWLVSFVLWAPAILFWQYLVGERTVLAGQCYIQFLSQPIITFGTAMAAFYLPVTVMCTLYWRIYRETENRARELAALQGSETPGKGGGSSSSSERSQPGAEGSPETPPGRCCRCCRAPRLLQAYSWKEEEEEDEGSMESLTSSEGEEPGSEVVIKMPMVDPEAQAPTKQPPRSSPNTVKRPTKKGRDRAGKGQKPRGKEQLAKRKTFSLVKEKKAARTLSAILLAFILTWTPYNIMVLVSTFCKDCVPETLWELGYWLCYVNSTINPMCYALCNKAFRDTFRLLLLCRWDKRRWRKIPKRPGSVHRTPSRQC
Method: as §1

[4] = target: T4, airway M3 receptor in isolated rat trachea (Rattus norvegicus, UniProt P08483); assay: Antagonism to the airway M3 receptor in isolated rat trachea (carbachol-induced contraction); assay type: cell-based; settings: for Kb: isolated rat trachea, shift of carbachol dose-response curve; for Selectivity M2/M3: ratio of KB right atrium M2 to KB trachea M3
T4 construct: from tissue; host or cells: trachea of male SD rats
Method: The test was performed according to a conventional method. Male SD strain rats (weighing 300-500 g) were killed by exsanguination, and from each of them the trachea was isolated. Annular segments (2 mm wide) were cut out from the trachea and cut transversely at the anterior cartilage part to make open ring preparation. Each preparation was suspended in a Magnus tube filled with 5 ml of Krebs-Henseleit solution (gassed with 95% O2-5% CO2 and kept at 32° C.) with an initial tension of 1.0 g and a resting tension of 0.6 g. The tension of the preparation was recorded isometrically. After being equilibrated for an hour, the preparation was made to contract twice by treatment with 10^−4 M carbachol, and the second contraction induced by carbachol was used as the reference contraction. After washing the preparation with fresh solution to restore it to the base line, a test compound was administered thereto (or no treatment was given). Ten minutes later, carbachol (10^−8 to 10^−3 M) was cumulatively administered in three-fold increasing doses to obtain a dose-response curve. The dose-responsecurve was plotted by expressing responses as percentages based on the reference contraction of the preparation as 100%. The antagonistic potency (KB value) of the test compound was determined from the degree of shift of the dose-responsecurve attributable to the treatment with the test compound.

T4 sequence (P08483 whole entry): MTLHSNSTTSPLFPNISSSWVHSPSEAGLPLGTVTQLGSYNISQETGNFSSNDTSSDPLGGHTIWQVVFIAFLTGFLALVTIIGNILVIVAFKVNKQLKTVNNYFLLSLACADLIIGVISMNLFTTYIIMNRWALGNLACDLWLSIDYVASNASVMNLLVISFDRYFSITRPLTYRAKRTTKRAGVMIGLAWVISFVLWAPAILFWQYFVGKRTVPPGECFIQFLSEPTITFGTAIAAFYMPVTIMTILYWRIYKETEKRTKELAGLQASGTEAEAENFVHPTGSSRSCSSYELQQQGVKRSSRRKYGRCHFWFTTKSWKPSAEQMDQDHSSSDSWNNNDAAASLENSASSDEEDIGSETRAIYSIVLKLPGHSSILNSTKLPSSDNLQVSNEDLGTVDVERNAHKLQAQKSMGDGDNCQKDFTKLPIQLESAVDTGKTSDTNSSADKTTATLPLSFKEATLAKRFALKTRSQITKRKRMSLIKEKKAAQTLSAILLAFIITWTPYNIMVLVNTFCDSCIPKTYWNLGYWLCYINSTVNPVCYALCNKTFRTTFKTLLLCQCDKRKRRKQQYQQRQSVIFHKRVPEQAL

SMILES	Ki [1]	Ki [2]	Ki [3]	Kb [4]	Selectivity M2/M3 [4]
O=C(CCNC(=O)CNC(=O)CC(c1ccccc1)(c1ccccc1)c1ccccc1)NC[C@H]1CCCN(CC2CCCCC2)C1 [Example 12, N-{2-(3-{((3R)-1-cyclohexylmethyl-3-piperidyl)methyl}amino-3-oxopropyl)amino-2-oxoethyl}-3,3,3-triphenyloropanamide]	32 nM	34 nM	140 nM	2.3 nM	70 times
CC[N+]1(CC)CCC[C@H](CNC(=O)[C@H]2CCCN2C(=O)[C@@H]2C[C@@H](O)CN2C(=O)CC(c2ccccc2)(c2ccccc2)c2ccccc2)C1.[Cl-] [Example 133, (3R)-1,1-diethyl-3-({({(2R)-1-({(2S,4R)-4-hydroxy-1-(3,3,3-triphenylpropanoyl)-2-pyrrolidinyl}carbonyl)-2-pyrrolidinyl}carbonyl)amino}methyl)piperidinium chloride]	1600 nM	810 nM	> 2500 nM	0.71 nM	58 times
